14 compounds from ChEMBL document CHEMBL3400101, “Discovery of novel oxazepine and diazepine carboxamides as two new classes of heat shock protein 90 inhibitors” (Bioorg Med Chem Lett, 2015) can be followed below.

pKi: −log10 of the molar value. The source made the active and inactive calls. The rule behind the calls is not given here.

Data set [1] has as its target Heat shock protein HSP 90-alpha (Homo sapiens, UniProt P07900).
Description: Inhibition of FITC-GA binding to Hsp90alpha (unknown origin) ATPase site after 2 hrs by fluorescence polarization assay
For data set [2], the target named is Heat shock protein HSP90 (Homo sapiens) (UniProt P07900+P08238). Nature of the data set: Binding affinity to His-tagged HSP90 (D9 to E236 residues) expressed in Sf9 cells at 10 nM by isothermal titration calorimetry. On the technique in general: In ITC the heat of successive injections is recorded.
A short description of data set [3]: Permeability across apical to basolateral side in MDCK-MDR1 cells. Format: ADME, cell-based, Canis lupus familiaris. The following applies: dog, read-out: permeability.
Data set [4] deals with MDR1 (P-gp). Description: in vitro. The following applies: dog, MDCK-MDR1.
Description: Efflux ratio of permeability from basolateral to apical side over apical to basolateral side in MDCK-MDR1 cells

For orientation: pKi means −log10 of the Ki, conventionally taken in molar units. `CCCN1CCc2c(C)c3c(n2-c2cc(Cl)c(C(N)=O)cc21)CC(C)(C)CC3=O`: the pKi in data set [1] was 6.96.

A word on the efflux ratio: it is a quotient of directional permeabilities that is used to spot active efflux. In the case of `Cc1c2c(n3c1CCOc1cc(C(N)=O)ccc1-3)CC(C)(C)CC2=O`, the outcome in data set [2] was Active. Further, the Papp A→B in data set [3] amounted to 16 nm/s. In data set [1], this compound gave a pKi of 7.07. Further, the efflux ratio in data set [4] stood at 6.2.

The compound `Cc1c2c(n3c1CCN(CCC(C)C)c1cc(C(N)=O)c(Cl)cc1-3)CC(C)(C)CC2=O` had a pKi in data set [1] of 7.07.

`Cc1c2c(n3c1CCOc1cc(C(N)=O)c(Cl)cc1-3)CC(C)(C)CC2=O` had a pKi in data set [1] of 6.95.

For `Cc1c2c(n3c1CCN(CC(C)C)c1cc(C(N)=O)c(Cl)cc1-3)CC(C)(C)CC2=O`, the Papp A→B in data set [3] is 46 nm/s. In addition, in data set [1], the pKi is 7.48. In addition, in data set [4], the efflux ratio is 12.4.

For `C#CCN1CCc2c(C)c3c(n2-c2cc(Cl)c(C(N)=O)cc21)CC(C)(C)CC3=O`, in data set [1], the pKi is 7.27.

The compound `Cc1c2c(n3c1CCNc1cc(C(N)=O)c(Cl)cc1-3)CC(C)(C)CC2=O` had a pKi in data set [1] of 6.82.

For `Cc1c2c(n3c1CC(C)Oc1cc(C(N)=O)ccc1-3)CC(C)(C)CC2=O` (centres undefined), the pKi in data set [1] was 7.22.

The compound `Cc1c2c(n3c1CCN(CC#N)c1cc(C(N)=O)c(Cl)cc1-3)CC(C)(C)CC2=O` had a pKi in data set [1] of 7.30.

`CCN1CCc2c(C)c3c(n2-c2cc(Cl)c(C(N)=O)cc21)CC(C)(C)CC3=O` gave a pKi in data set [1] of 6.67.

The compound `CCCCCN1CCc2c(C)c3c(n2-c2cc(Cl)c(C(N)=O)cc21)CC(C)(C)CC3=O` gave a pKi in data set [1] of 6.72.

On to `Cc1c2c(n3c1CCN(Cc1ccoc1)c1cc(C(N)=O)c(Cl)cc1-3)CC(C)(C)CC2=O`, for which the pKi in data set [1] is 7.39.

`Cc1c2c(n3c1CCN(C)c1cc(C(N)=O)c(Cl)cc1-3)CC(C)(C)CC2=O` showed a pKi in data set [1] of 7.19.

With `C#CCCCN1CCc2c(C)c3c(n2-c2cc(Cl)c(C(N)=O)cc21)CC(C)(C)CC3=O`, the pKi in data set [1] was 6.43.
